Experiments:
[1] = tested on: TgSwDI mice; assay: Brain immunostaining and Thioflavin S staining in a model of vascular and parenchymal amyloidosis; format: in vivo, mouse; settings: for Aβ and GFAP staining, dentate gyrus (hippocampus) / GFAP and Aβ staining and their colocalization, cortex / co-localization of Aβ staining with glial cells, dentate gyrus / gliosis and amyloidosis, thalamic region: 16 month-old mice treated for 8 months; for amyloid deposits in the cortex and thalamic region (Thioflavin S) / hippocampal deposition of Amyloid beta (Thioflavin S) / amyloid load in the brain (Thioflavin S): 16 months old, diet 8 months; for amyloid load in the brain (Thioflavin S): 15-20 mg/kg/day
Procedure: The animals were sacrificed by trans-cardiac perfusion (medium flow pump, Fisher Scientific 13-876-2, 10 ml/min flow rate) with PBS for 2 minutes followed by 4% paraphormaldehyde for 5 minutes. Brains were then removed from the skull and postfixed in 4% paraphormaldehyde for 2 h at 4° C. […] Brains were then washed in PBS, assembled in a plastic mold with Tissue-Tek O.C.T. compound (Fisher Scientific), and frozen with a mixture of liquid nitrogen and isopenthanol. Serial cryostat sections of 8 μm thickness were collected on positively charged microscope slides (Fisher Scientific) and stored at −80° C. until further immunohistochemical analysis.
For immunohistochemical staining, slices were warmed to RT for 5′ prior to use, rinsed in PBS and blocked with Mouse on Mouse (MOM) blocking reagent (2 drops in 2.5 ml of PBS, Vector Laboratories, Burlingame, Calif.) for 20 minutes. Incubation with the rabbit monoclonal antibody against active caspase-3 (Cell Signaling Technology) was performed overnight at 4° C. in PBS containing 0.1% triton X-100 and 5 mg/ml BSA. The day after, the sections were washed three times with PBS and incubated in Alexa Fluor 488- or 633-conjugated anti-rabbit IgG (Life Technologies; 1:200 in PBST with 5 mg/ml BSA; 1 h at RT), followed by primary anti-Aβ 6E10 (1:200 in PBS+MOM for 2 hours at RT), and by secondary Alexa Fluor 568 anti-mouse IgG. Finally, the slices were washed and the DNA counterstained with TO-PRO (Life Technologies) 1:1000 for 10 min, or with NeuN green neuronal staining (1:100 in PBS for 1 hour, Millipore, Temecula, Calif.). For staining of active microglial cells, tissue sections were incubated with anti IBA1 goat antibody (Abcam, Cambridge, Mass.) 1:200 in PBS containing 0.1% Triton and 5 mg/ml BSA for 1 hour, followed by Alexa Fluor 488 anti-goat IgG (1 hour). For astrocytes, brain slices were stained with GFAP antibody (Fisher Scientific 1:200).
Total fibrillar Aβ burden (parenchymal and vascular) and CAA burden (Aβ burden in the vasculature) were evaluated separately in sections stained with Thioflavin-S, using methods described previously (Scholtzova et al., J Neurosci 2009, 29: 1846-1854).
After washing, slides were mounted with an aqueous mounting medium (Vector Laboratories). Images were acquired in a Zeiss LSM 510 confocal microscope using 40× or 100× oil lens and processed using Image J and Adobe Photoshop. Images were acquired maintaining constant exposure for all samples across single experiments. For quantifications, stained brain slices corresponding to the injection site area of 3 or more animals were quantified with Image J. The total area of NeuN, caspase 3, Aβ and IBA1 positive cells was quantified and compared between different treatments.

[2] = tested on: TgSwDI mice; assay: Barnes Maze spatial memory testing; format: in vivo, mouse; settings: for behavioral phenotypes (Barnes maze): given with diet; for distance traveled, probe trial / mistakes, probe trial: in the diet for 8 months, 15-20 mg/kg/day; for distance traveled, probe trial / mistakes, probe trial / distance traveled in trial 10 (last trial): tested at 15-16 months; for distance traveled in trial 10 (last trial): treated for 8 months
Description: The Barnes Maze was used to provide an index of spatial learning and memory. The task capitalizes on the motivation of mice to seek refuge from loud, open and brightly-lit spaces. Mice were trained across a series of trials to successfully navigate to a hidden escape chamber using information provided by distal spatial cues. The Barnes Maze consists of a relatively large (36″ in diameter), circular platform with a beige textured surface that is elevated 36″ from the floor (San Diego Instruments, San Diego USA). The platform has twenty 2″ diameter holes that are equally spaced around the periphery of the platform (1″ from the edge). A grey plastic escape box (˜10 cm×8.5 cm×4 cm) is located under only one of the holes, the location of which is constant for each subject but variable across subjects and counterbalanced across groups. The surface of the Barnes maze is brightly-lit (500-600 lux), illuminated by an overhead lamp (60-100 W) placed approximated 30″ above the center of the platform. Visible distal cues were placed around the room and remained constant throughout the testing period. An overhead video camera and specialized software (Noldus Ethovision 11.5) was used to track the locomotor trajectories of the mice. Mice were trained for six consecutive daily testing sessions (2 trials/day for 5 days, and probe test on day 6).
On each testing day, mice were brought to the testing room for a minimum of 30 mins prior to testing in order to acclimate to transport and testing room conditions. On the first day of testing, each mouse was gently removed from its home cage by the base of its tail and placed in the center of the platform and kept within an inverted 500 ml beaker for 1 min. A white noise generator (San Diego Instruments) was turned on (˜90-100 dB) when the mouse was placed onto the maze. After the 1-min period, the beaker was slowly moved (over the course of 1 min) to the target hole with the mouse freely moving but confined underneath. Care was taken not to catch the tail or paws of the mouse while moving the beaker. The mouse was then permitted, or was gently guided by the experimenter using the beaker, to enter the escape box and was given 2 min inside before being transported back to its home cage within the escape box. The white noise was turned off as soon as the mouse entered the escape box. The platform and start box were cleaned thoroughly with 30% ethanol and allowed to dry fully before each trial. To ensure that distal spatial cues rather than local intramaze cues were being used to help guide navigation to the escape box, the maze was rotated after each training trial and the escape box re-positioned to always be in the identical spatial location within the room.
After the initial beaker trial, each mouse was given 2 training trials per day. During training trials, mice were placed in the center of the platform within an plastic 6″l×6″w×8″h start box. The white noise generator was turned on and, after 10-15 s delay, the start box was lifted. The mouse was permitted a maximum of 3 min to find the designated hole and escape box. When a mouse entered the escape box the white noise was turned off and they were given approximately 1 additional min inside the box before being transferred back to the home cage. […] A 90-120 min inter-trial interval separated the two training trials on each daily session.
Twenty four hours after (Day 6) the fifth training session, a 3-min probe trial was given, conducted identically as the training trials but where the escape box had been removed. This probe was used to examine search behavior patterns and to help control for possible strategies that use local cues from the escape box.
Spatial learning and memory was inferred based on the latency, distance and number of errors (other holes visited) that was required for the mouse to successfully navigate to the escape box. […]

[3] = tested on: SH-SY5Y cells; assay: ATP measurement (CellTiter-Glo); format: cell-based, human; settings: drug in combination with the peptide; 3 hours
Procedure: Steady state levels of ATP were estimated using the Cell Titter-Glo, according to manufacturer's instructions. Briefly, 5×10^3 cells per well of both D3 and SHSY cells were plated on 96-wells plates. The day after, cells were treated with either 10 μM Q22 or 50 μM Ab42 peptides, respectively. Peptides were added alone or in combination with increasing concentrations of MTZ (100 and 300 μM) or AZT (30 and 300 μM). Controls were treated with either DMSO or 5 μM oligomycin. After 3 hours of treatment, the plates containing the cells were equilibrated to room temperature for 30 minutes prior to addition of the luciferin/luciferase/cell lysis mixture. Absolute luminescence from quadruplicate experiments was recorded using a SpectraMax plate reader (Molecular Devices, Sunnyvalem Calif., US).

[4] = drugs in diet from 5-6 months of age, sacrificed at 9 months

Compound	Aβ and GFAP staining, dentate gyrus (hippocampus) [1]	GFAP and Aβ staining and their colocalization, cortex [1]	co-localization of Aβ staining with glial cells, dentate gyrus [1]	gliosis and amyloidosis, thalamic region [1]	amyloid deposits in the cortex and thalamic region (Thioflavin S) [1]	hippocampal deposition of Amyloid beta (Thioflavin S) [1]	amyloid load in the brain (Thioflavin S) [1]	Aβ deposition, hippocampus [1, 4]	increase in caspase 3 activation induced by Aβ, hippocampus [1, 4]	behavioral phenotypes (Barnes maze) [2]	distance traveled, probe trial [2]	mistakes, probe trial [2]	distance traveled in trial 10 (last trial) [2]	ATP levels under Aβ challenge [3]
CC(=O)/N=c1/sc(S(N)(=O)=O)nn1C [MTZ, methazolamide]	both Aβ and GFAP were reduced	significant reduction	not co-localized within glial cells	decreased gliosis (green) and amyloidosis (red)	reduced deposition	decrease	reduced	reduction in Aβ deposition	inhibited	ameliorate behavioral phenotypes	not significantly higher than WT mice	not significantly higher than WT mice	not significantly higher than WT mice	remained unchanged
CC(=O)Nc1nnc(S(N)(=O)=O)s1 [ATZ, acetazolamide]	both Aβ and GFAP were reduced	significant reduction	not co-localized within glial cells	decreased gliosis (green) and amyloidosis (red)	reduced deposition	decrease	reduced		inhibited	ameliorate behavioral phenotypes	not significantly higher than WT mice	not significantly higher than WT mice	not significantly higher than WT mice	remained unchanged
